This is an account of results in US5457095A, “Substituted propane-phosponous acid compounds” (Ciba-Geigy Corporation, priority 1984, dated 1995).

As a reminder, the pIC50 is the IC50 on a negative log10 scale, so that one unit is a factor of ten.

One data set deals with GABAB receptor sites (Homo sapiens, UniProt Q9UBS5). Kind of data set: affinity towards GABAB receptor sites. The data set is classed as binding.
For the next data set, the system named is rotarod mice. Kind of data set: muscle relaxant activity, rotarod mice. The settings on record: Mus musculus, ip, read-out: ID50-value, muscle relaxant (rotarod mice). The data set is classed as in vivo. (Falling from the rotarod earlier than controls is read as motor impairment.)
The subject of data set [1] is phenylquinone writhing in mice. Kind of data set: analgesic activity, phenylquinone writhing in mice. Type of data set: in vivo. As to conditions: Mus musculus, po. (In general: Writhing tests count abdominal constrictions after an irritant is injected.)
Data set [2] deals with audiogenic seizures in DBA/2 mice. Kind of data set: anticonvulsant activity, audiogenic seizures in DBA/2 mice. Type of data set: in vivo. The settings on record: Mus musculus, ip, read-out: ID50-value, anticonvulsant (audiogenic seizures in DBA/2 mice).
The next data set in a line: lethality at high dose. As to conditions: dose of 200 mg/kg i.p. Type of data set: in vivo.

pIC50: −log10 of the molar value.

Sequence of GABAB receptor sites (Q9UBS5 15-961 limits assumed): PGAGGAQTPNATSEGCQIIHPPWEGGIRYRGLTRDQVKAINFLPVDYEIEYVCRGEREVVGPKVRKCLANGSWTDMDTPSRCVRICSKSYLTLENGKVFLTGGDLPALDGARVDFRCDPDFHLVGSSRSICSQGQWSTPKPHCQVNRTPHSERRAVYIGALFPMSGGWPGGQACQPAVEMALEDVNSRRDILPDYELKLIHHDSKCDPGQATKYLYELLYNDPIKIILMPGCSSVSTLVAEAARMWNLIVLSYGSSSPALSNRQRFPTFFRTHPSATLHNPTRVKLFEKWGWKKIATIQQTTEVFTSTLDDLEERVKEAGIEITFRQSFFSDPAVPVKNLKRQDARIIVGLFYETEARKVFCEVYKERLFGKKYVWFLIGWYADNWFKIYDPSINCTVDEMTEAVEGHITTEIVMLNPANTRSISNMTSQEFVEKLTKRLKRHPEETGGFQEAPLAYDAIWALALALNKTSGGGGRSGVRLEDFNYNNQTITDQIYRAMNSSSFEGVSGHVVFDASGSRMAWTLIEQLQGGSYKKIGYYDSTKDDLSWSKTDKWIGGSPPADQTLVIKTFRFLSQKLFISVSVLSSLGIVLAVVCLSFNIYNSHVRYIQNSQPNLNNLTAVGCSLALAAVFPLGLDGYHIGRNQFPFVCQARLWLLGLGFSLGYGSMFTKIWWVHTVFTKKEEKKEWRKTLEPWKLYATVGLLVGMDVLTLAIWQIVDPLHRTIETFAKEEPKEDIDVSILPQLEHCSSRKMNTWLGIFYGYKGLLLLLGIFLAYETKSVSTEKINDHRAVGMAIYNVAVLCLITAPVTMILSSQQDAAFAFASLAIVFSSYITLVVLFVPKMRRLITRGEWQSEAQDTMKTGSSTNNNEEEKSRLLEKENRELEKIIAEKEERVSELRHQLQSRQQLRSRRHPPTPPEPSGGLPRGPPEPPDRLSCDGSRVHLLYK
Sequence of GABAB receptor sites (O75899 42-941 partner): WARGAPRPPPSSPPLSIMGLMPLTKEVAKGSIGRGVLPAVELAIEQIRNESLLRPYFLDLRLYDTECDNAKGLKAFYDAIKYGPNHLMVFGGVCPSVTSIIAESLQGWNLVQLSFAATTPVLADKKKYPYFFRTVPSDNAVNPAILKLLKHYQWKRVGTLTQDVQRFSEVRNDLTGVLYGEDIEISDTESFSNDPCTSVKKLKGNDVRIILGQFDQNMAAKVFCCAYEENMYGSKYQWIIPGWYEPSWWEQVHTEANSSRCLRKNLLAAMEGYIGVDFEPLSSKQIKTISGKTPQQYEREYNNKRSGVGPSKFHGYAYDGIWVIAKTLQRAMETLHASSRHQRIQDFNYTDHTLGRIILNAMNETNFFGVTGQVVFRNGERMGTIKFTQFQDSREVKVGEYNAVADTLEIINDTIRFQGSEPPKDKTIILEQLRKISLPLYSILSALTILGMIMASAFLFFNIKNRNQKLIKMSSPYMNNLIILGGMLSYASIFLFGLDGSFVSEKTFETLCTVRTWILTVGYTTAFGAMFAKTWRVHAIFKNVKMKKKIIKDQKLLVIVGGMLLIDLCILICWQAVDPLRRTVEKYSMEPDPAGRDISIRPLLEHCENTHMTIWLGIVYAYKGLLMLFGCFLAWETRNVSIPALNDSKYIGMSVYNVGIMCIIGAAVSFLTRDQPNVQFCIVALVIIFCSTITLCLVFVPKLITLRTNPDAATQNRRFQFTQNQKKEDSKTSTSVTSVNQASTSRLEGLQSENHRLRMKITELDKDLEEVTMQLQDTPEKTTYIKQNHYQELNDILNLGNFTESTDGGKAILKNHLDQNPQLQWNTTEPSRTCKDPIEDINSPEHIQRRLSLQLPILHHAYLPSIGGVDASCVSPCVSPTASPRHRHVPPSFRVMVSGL

With `NCCCP(O)O` [Example 1, 3-aminopropylphosphonous acid], at GABAB receptor sites (compared with baclofen), the “activity relative to baclofen (times more pronounced)” value is recorded as “at least 20 times”.
Turning to `NCC(CP(O)O)c1ccc(Cl)cc1` (stereo not drawn) [Example 8, 3-amino-2-(4-chlorophenyl)propylphosphonous acid], at GABAB receptor sites (read-out: IC50-value at the GABAB receptor site), the pIC50 is 7.46. For the same compound, the ED50 in the data set on rotarod mice was 6 to 9 mg/kg; in data set [1] it was 4 mg/kg; in data set [2], 6 mg/kg. The deaths entry in “lethality at high dose” was “no deaths were observed”.
